Laboratory results: patent publication US12427183B2, “Methods of treating cancer, infectious disease, and autoimmune disease using chemokines” (New York Society for the Relief of the Ruptured and …, priority 2016, dated 2025)

Experiments:
[1] = test system: CXCR3; assay: CXCR3 inhibition during chemokine-potentiated TLR9 activation of pDCs, IFN-α ELISA; format: cell-based, human; conditions: AMG487 0.1, 1 or 10 μM, CpG 0.25 μM, 24 hours
Description: Purified pDCs from HDs were cultured in media alone (control), with either a CpG TLR9 agonist (0.25 μM) or with CpG and either CXCL4 or CXCL10 (both at 10 μg/ml) alone or in the presence of the CXCR3 inhibitor AMG487 at 0, 0.1, 1 or 10 μM for 24 hours. IFN-α was quantified in the supernatants by ELISA.

[2] = target: PI3Kδ (Homo sapiens, UniProt O00329); conditions: at the concentration used (10 μM)
Chain of PI3Kδ (O00329 whole entry): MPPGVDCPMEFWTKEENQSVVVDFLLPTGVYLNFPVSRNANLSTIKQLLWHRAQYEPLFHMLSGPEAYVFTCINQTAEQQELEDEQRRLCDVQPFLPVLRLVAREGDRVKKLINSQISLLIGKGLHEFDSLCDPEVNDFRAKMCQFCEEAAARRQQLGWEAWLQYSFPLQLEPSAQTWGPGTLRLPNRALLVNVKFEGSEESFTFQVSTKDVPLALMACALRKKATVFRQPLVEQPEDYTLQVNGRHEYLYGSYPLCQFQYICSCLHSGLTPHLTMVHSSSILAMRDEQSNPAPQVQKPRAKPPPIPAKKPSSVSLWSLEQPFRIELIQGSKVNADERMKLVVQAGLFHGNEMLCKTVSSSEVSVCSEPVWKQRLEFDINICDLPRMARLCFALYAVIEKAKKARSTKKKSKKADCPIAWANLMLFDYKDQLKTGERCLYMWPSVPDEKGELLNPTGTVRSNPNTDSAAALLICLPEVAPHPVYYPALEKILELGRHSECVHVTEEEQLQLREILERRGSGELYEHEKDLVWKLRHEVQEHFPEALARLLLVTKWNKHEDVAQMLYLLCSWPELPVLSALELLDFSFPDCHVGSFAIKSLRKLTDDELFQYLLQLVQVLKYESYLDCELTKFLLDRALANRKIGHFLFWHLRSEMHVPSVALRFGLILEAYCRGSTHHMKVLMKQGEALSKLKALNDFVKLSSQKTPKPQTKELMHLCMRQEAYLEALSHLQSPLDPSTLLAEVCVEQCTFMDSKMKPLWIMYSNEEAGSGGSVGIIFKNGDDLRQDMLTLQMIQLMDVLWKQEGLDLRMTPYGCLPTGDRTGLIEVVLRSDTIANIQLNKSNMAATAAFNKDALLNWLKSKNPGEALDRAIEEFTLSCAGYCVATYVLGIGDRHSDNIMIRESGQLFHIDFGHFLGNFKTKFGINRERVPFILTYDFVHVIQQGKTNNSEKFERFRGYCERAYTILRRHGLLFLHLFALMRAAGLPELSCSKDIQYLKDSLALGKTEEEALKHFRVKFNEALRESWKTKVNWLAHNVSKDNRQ
Chain of PI3Kδ (P27986 whole entry partner): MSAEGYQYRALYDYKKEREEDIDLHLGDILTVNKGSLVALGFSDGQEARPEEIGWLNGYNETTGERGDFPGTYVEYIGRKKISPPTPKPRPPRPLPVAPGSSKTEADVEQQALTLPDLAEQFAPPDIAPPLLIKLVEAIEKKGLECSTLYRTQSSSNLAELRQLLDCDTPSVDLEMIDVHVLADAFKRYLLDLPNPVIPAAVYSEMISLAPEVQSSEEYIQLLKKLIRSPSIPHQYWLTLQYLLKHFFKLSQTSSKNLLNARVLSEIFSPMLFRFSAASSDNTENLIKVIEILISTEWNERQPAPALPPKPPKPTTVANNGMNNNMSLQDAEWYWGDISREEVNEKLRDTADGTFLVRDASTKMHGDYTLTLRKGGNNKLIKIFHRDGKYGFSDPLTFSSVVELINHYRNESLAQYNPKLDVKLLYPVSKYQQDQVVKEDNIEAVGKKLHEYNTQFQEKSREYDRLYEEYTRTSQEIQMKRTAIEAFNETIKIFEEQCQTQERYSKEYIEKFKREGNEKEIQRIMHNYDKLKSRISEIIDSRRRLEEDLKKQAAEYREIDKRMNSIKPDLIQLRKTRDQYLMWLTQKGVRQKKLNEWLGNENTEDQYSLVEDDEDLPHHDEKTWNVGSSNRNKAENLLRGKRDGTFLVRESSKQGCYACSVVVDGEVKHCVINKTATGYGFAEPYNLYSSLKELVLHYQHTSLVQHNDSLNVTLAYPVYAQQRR

## CCOc1ccc(-n2c([C@@H](C)N(Cc3cccnc3)C(=O)Cc3ccc(OC(F)(F)F)cc3)nc3ncccc3c2=O)cc1 [AMG487]
[1]; CXCL4 10 μg/ml
  effect of CXCR3 inhibition on the activation of TLR9 by CXCL4 in pDCs: no effect
[1]; CXCL10 10 μg/ml
  effect of CXCR3 inhibition on the activation of TLR9 by CXCL10 in pDCs: no effect

## CC[C@H](Nc1ncnc2[nH]cnc12)c1nc2cccc(F)c2c(=O)n1-c1ccccc1 [CAL-101]
[2]
  cell viability of pDCs from HDs: without impacting
